Source: patent US20260365670A1, “EGFR INHIBITORS AND USES THEREOF” (DIZAL (JIANGSU) PHARMACEUTICAL CO., LTD., priority 2022, published 2026)
Read-outs that look alike come from different tables or passages of the source.

Assays:
EGFR (C797S L858R) = target: T1, EGFR (C797S L858R) (Homo sapiens, UniProt P00533, C797S/L858R); assay: Inhibition of EGFR (C797S L858R) biochemical enzymatic activity (HTRF); conditions: 1 mM ATP
T1 construct: purchased signalchem
Summary of the method: (§1)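 HTRF kinase assay: each EGFR enzyme phosphorylated 1 μM biotinylated TK substrate with 1 mM ATP in buffer containing 5 mM MgCl2, 1 mM MnCl2, 0.01% CHAPS, 1 mM DTT, 0.5% DMSO. After 1 h at room temperature, EDTA detection mix stopped the reaction. IC50 came from a four-parameter logistic fit of the 665/615 nm ratio.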

EGFR L858R/T790M = target: T2, EGFR L858R/T790M (Homo sapiens, UniProt P00533, L858R/T790M); assay: Inhibition of EGFR L858R/T790M biochemical enzymatic activity (HTRF); conditions: 1 mM ATP
T2 construct: purchased Carna Bio
Summary of the method: as §1

EGFR wild type = target: T3, EGFR wild type (Homo sapiens, UniProt P00533); assay: Inhibition of EGFR wild type biochemical enzymatic activity (HTRF); conditions: 1 mM ATP
T3 construct: purchased Carna Bio
Summary of the method: as §1

EGFR[T790M/C797S/L858R] = target: T4, EGFR[T790M/C797S/L858R] (Homo sapiens, UniProt P00533, C797S/L858R/T790M); assay: Inhibition of EGFR[T790M/C797S/L858R] biochemical enzymatic activity (HTRF); conditions: 1 mM ATP
T4 construct: purchased Carna Bio
Summary of the method: as §1

A-431 = assay: Cell proliferation assay, A-431 cells (GI50, Table 6); assay type: cell-based; conditions: Homo sapiens, A-431, A-431 cells
EGFR (d746-750 C797S) = target: T5, EGFR (d746-750 C797S) (Homo sapiens, UniProt P00533, C797S/DEL746-750); assay: Inhibition of EGFR (d746-750 C797S) biochemical enzymatic activity (HTRF); conditions: 1 mM ATP
T5 construct: purchased signalchem
Summary of the method: as §1

EGFR L858R = target: T6, EGFR L858R (Homo sapiens, UniProt P00533, L858R); assay: Inhibition of EGFR L858R biochemical enzymatic activity (HTRF); conditions: 1 mM ATP
T6 construct: purchased Carna Bio
Summary of the method: as §1

[1] = target: T7, EGFR[T790M/C797S/d746-750] (Homo sapiens, UniProt P00533, C797S/DEL746-750/T790M); assay: Inhibition of EGFR[T790M/C797S/d746-750] biochemical enzymatic activity (HTRF)
T7 construct: purchased Carna Bio
Summary of the method: as §1

EGFR Exon19Del/T790M = target: T8, EGFR Exon19Del/T790M (Homo sapiens, UniProt P00533, DEL746-750/T790M); assay: Inhibition of EGFR Exon19Del/T790M biochemical enzymatic activity (HTRF); conditions: 1 mM ATP
T8 construct: purchased Carna Bio
Summary of the method: as §1

[2] = test system: Ba/F3 cells expressing EGFR mutations; assay: Cell proliferation assay, Ba/F3 cells expressing EGFR mutations (CellTiter-Glo, 72 hours); assay type: cell-based; conditions: Mus musculus, BaF3, 72 h
Summary of the method: (§2)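 Cells are exposed to graded compound concentrations after overnight plating, using 500 PC-9 or 5000 Ba/F3 per well. Baseline-subtracted viability is compared with vehicle to give percent proliferation, then GI50.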

EGFR Exon19Del = target: T9, EGFR Exon19Del (Homo sapiens, UniProt P00533, DEL746-750); assay: Inhibition of EGFR Exon19Del biochemical enzymatic activity (HTRF); conditions: read-out: IC50 @Del19
T9 construct: purchased Carna Bio
Summary of the method: as §1

PC-9 = assay: Cell proliferation assay, PC-9 cells (CellTiter-Glo, 72 hours); assay type: cell-based; conditions: Homo sapiens, PC-9, 72 h, PC9 cells, read-out: GI50 PC9
Summary of the method: as §2

[3] = EGFR L858-C797S, 1 h, room temperature, read-out: IC50 (nM) @L858-C797S
[4] = EGFR L858R-T790M, 1 h, room temperature, read-out: IC50 (nM) @L858R-T790M
[5] = EGFR WT, 1 h, room temperature, read-out: IC50 (nM) @WT
[6] = EGFR T790M-C797S-L858R, 1 h, room temperature, read-out: IC50 (nM) @T790M- C797S - L858R
[7] = EGFR Del19-C797S, 1 h, room temperature, read-out: IC50 (nM) @Del19-C797S
[8] = 1 h, room temperature, read-out: IC50 (nM) @L858R
[9] = EGFR T790M-C797S-Del19, 1 mM ATP, 1 h, room temperature, read-out: IC50 (nM) @T790M - C797S - Del19
[10] = EGFR Del19-T790M, 1 h, room temperature, read-out: IC50 (nM) @Del19-T790M
[11] = BaF3 cells, EGFR DEL19 - C797S, read-out: GI50 DEL19 - C797S/BaF3
[12] = BaF3 cells, EGFR DEL19 - T790-C797S, read-out: GI50 DEL19 - T790-C797S/BaF3
[13] = BaF3 cells, EGFR L858R - C797S, read-out: GI50 L858R - C797S/BaF3
[14] = BaF3 cells, EGFR L858R - T790-C797S, read-out: GI50 L858R - T790-C797S/BaF3
[15] = BaF3 cells, EGFR L858R - T790M, read-out: GI50 L858R - T790M/BaF3
[16] = BaF3 cells, EGFR L858R, read-out: GI50 L858R/BaF3
[17] = EGFR DEL19 - T790M, read-out: GI50 DEL19 - T790M
[18] = EGFR Del19, 1 mM ATP, 1 h, room temperature
[19] = EGFR (C797S L858R), 1 h at room temperature, read-out: IC50 @L858-C797S
[20] = EGFR L858R/T790M, 1 h at room temperature, read-out: IC50 @L858R-T790M
[21] = EGFR wild type, 1 h at room temperature, read-out: IC50 @WT
[22] = EGFR[T790M/C797S/L858R], 1 h at room temperature, read-out: IC50 @T790M- C797S - L858R
[23] = EGFR (d746-750 C797S), 1 h at room temperature, read-out: IC50 @Del19-C797S
[24] = 1 h at room temperature, read-out: IC50 @L858R
[25] = EGFR[T790M/C797S/d746-750], 1 mM ATP, 1 h at room temperature, read-out: IC50 @T790M - C797S - Del19
[26] = EGFR Exon19Del/T790M, 1 h at room temperature, read-out: IC50 @Del19-T790M
[27] = EGFR Exon19Del, 1 mM ATP, 1 h at room temperature

T9 sequence (P00533 with tags, fused parts or gaps DEL746-750 limits assumed): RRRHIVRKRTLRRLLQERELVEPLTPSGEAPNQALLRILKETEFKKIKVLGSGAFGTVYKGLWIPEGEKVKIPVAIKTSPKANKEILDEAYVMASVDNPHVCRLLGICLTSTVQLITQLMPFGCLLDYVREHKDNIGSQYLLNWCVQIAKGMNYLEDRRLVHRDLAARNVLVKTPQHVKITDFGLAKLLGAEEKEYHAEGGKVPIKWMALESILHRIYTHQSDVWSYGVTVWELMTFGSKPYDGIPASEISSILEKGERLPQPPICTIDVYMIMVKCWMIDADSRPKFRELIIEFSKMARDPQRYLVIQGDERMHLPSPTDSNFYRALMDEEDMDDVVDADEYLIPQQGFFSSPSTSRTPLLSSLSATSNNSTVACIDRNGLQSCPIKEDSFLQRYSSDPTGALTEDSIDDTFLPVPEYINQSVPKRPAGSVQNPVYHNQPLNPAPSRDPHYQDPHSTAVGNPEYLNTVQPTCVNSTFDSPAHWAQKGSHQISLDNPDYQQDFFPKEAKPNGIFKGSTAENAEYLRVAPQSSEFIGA
T8 sequence (P00533 with tags, fused parts or gaps DEL746-750/T790M limits assumed): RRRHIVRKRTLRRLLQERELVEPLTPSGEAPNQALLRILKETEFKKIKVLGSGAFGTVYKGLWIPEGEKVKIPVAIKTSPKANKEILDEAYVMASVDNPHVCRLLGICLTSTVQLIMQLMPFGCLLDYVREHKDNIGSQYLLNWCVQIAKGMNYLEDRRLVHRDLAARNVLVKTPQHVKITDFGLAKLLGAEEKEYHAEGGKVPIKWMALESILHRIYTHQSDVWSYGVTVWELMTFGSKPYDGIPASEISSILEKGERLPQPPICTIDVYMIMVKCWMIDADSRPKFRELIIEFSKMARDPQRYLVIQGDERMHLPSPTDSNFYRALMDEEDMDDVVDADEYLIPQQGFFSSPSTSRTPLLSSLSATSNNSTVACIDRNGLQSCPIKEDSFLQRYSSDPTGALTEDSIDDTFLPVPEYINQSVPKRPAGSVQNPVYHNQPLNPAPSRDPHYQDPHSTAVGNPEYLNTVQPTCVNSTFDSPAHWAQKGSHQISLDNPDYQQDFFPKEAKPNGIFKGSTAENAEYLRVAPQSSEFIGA
T6 sequence (P00533 25-1210 L858R): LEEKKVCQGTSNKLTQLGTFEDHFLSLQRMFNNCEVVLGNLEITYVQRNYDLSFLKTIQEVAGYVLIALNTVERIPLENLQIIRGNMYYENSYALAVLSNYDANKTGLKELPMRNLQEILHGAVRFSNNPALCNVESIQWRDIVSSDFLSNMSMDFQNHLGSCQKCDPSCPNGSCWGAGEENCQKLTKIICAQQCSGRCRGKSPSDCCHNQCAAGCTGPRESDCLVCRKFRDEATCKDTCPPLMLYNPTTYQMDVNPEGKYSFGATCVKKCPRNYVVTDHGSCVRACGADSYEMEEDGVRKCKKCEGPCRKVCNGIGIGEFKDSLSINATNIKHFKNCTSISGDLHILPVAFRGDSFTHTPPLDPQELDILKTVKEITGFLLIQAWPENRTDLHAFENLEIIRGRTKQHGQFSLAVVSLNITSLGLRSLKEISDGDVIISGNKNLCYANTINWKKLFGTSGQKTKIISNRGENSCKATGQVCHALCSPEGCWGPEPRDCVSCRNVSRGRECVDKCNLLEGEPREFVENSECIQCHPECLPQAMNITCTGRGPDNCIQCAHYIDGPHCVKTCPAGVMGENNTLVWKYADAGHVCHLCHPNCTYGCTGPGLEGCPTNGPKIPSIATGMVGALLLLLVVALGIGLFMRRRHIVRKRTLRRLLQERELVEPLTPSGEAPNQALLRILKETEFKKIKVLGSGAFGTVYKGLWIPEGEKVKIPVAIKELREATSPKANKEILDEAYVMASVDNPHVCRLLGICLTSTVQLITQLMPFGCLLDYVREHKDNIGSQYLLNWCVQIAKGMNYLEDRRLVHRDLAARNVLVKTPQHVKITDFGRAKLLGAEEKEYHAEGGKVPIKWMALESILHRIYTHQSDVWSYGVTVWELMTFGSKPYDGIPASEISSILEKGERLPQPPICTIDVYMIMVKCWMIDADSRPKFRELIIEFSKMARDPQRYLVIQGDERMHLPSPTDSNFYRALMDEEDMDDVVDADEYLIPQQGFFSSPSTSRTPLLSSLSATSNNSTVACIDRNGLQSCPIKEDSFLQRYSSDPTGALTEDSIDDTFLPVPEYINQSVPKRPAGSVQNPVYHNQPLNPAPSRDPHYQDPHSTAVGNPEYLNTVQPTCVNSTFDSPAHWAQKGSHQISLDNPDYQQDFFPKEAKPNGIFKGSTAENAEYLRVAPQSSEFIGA
T7 sequence (P00533 with tags, fused parts or gaps DEL746-750/T790M/C797S limits assumed): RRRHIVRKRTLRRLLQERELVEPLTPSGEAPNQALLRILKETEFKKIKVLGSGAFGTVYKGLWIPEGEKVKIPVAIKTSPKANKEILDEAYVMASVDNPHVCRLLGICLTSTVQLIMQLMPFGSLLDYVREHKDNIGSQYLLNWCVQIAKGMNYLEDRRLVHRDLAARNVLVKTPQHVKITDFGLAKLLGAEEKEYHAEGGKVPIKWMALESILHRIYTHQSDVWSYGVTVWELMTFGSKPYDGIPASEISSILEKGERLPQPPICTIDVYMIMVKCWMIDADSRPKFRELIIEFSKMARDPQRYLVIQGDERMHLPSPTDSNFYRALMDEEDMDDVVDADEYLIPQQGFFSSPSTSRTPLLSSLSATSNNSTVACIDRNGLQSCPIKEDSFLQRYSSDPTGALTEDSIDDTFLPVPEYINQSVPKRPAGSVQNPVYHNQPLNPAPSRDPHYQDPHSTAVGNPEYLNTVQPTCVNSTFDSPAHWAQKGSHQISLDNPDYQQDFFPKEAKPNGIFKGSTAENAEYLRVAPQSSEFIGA
T3 sequence (P00533 25-1210): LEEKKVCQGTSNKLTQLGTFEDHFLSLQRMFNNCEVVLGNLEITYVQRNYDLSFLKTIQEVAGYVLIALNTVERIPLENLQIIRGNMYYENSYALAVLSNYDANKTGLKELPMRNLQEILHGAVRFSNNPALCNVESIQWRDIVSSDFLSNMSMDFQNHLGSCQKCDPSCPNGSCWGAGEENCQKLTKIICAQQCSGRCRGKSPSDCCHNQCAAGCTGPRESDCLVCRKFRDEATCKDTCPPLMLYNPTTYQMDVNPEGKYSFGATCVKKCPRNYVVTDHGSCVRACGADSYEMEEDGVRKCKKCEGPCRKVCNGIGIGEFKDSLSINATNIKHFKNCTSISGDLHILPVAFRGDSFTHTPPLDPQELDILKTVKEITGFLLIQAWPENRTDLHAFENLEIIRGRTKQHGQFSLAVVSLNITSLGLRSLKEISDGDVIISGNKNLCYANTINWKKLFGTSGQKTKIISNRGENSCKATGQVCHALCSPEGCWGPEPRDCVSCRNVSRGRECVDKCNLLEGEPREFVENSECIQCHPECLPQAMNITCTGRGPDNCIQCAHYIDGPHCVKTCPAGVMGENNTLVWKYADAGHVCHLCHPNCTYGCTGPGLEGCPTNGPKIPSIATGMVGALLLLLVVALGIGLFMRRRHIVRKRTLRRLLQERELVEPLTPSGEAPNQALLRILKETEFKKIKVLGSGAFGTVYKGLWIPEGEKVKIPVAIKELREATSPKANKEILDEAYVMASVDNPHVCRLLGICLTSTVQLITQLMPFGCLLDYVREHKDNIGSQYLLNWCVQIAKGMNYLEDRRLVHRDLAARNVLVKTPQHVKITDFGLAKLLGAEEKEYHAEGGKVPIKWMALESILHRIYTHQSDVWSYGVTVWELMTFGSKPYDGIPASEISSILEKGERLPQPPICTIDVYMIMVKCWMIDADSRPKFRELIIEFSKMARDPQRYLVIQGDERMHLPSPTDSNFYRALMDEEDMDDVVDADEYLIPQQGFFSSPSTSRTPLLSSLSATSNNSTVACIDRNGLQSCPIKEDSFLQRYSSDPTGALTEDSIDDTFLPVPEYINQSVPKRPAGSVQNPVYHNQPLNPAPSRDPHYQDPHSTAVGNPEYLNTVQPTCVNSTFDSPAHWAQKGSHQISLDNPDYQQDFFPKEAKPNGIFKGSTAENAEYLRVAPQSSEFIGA
T5 sequence (P00533 with tags, fused parts or gaps DEL746-750/C797S limits assumed): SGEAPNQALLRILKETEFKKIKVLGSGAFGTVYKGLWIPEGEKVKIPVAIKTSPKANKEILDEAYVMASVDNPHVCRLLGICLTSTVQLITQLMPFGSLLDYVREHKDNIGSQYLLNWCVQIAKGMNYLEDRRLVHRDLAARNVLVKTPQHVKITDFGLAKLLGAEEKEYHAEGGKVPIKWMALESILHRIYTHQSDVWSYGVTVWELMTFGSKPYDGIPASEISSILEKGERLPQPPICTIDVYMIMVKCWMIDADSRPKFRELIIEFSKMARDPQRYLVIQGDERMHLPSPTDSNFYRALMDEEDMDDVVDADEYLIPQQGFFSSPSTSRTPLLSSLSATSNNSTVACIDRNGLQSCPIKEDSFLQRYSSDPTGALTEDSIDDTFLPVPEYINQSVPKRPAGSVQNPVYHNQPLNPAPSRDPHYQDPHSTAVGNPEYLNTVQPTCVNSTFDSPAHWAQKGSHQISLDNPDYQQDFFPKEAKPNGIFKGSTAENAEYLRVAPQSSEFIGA

| SMILES | IC50 (EGFR (C797S L858R); [3]) [nM] | IC50 (EGFR L858R/T790M; [4]) [nM] | IC50 (EGFR wild type; [5]) [nM] | IC50 (EGFR[T790M/C797S/L858R]; [6]) [nM] | GI50 (A-431) [nM] | IC50 (EGFR (d746-750 C797S); [7]) [nM] | IC50 (EGFR L858R; [8]) [nM] | IC50 [1, 9] [nM] | IC50 (EGFR Exon19Del/T790M; [10]) [nM] | GI50 [2, 11] [nM] | GI50 [2, 12] [nM] | GI50 [2, 13] [nM] | GI50 [2, 14] [nM] | GI50 [2, 15] [nM] | GI50 [2, 16] [nM] | GI50 [2, 17] [nM] | IC50 (EGFR Exon19Del; [18]) [nM] | GI50 (PC-9) [nM] | IC50 (EGFR (C797S L858R); [19]) [nM] | IC50 (EGFR L858R/T790M; [20]) [nM] | other results |
| --- | --- | --- | --- | --- | --- | --- | --- | --- | --- | --- | --- | --- | --- | --- | --- | --- | --- | --- | --- | --- | --- |
| Cn1ncc2c1OCCN1CC3CCC(C3)(C1)n1c(nc3cc(F)c(N4CCOCC4)cc31)NC(=O)c1cc-2c(=O)n(C)c1 (single isomer, unassigned) [Example A118B] | 37 | 61 | 3640 | 11 | 1120 | 3.2 | 110 | 2.9 | 7.4 | 0.68 | 4.1 | 8.2 | 6.7 | 19 | 3.8 | 1.8 | 8.7 | 16 | – | – | – |
| Cc1cc2cc(n1)-c1cnn(C)c1OCCN(CC(F)F)CCn1c(nc3ccccc31)NC2=O [Example B5] | 195 | 13 | > 5000 | 7.1 | 2820 | 48 | 440 | 4.1 | 5.1 | 62 | 31 | 66 | 9.1 | 7 | 144 | 41 | 108 | 115 | – | – | – |
| Cc1cc2cc(n1)-c1cnn(C)c1OCCN1CC3CCC(CC3)(C1)n1c(nc3ccc(N4CCC5(CN(C)C5)C4)cc31)NC2=O [Example B37] | – | – | – | – | 5040 | – | – | – | – | 12 | 5 | 73 | 9 | 28 | 74 | 5 | – | 106 | 99 | 13 | IC50 (EGFR wild type; [21]): > 5000 nM; IC50 (EGFR[T790M/C797S/L858R]; [22]): 5.6 nM; IC50 (EGFR (d746-750 C797S); [23]): 13 nM; IC50 (EGFR L858R; [24]): 194 nM; IC50 [1, 25]: 3.9 nM; IC50 (EGFR Exon19Del/T790M; [26]): 9 nM; IC50 (EGFR Exon19Del; [27]): 19 nM |
| Cc1cc2cc(n1)-c1cnn(C)c1OCCC[C@@H](C)Cn1c(nc3ccc4c(c31)CCN(C1COC1)C4)NC2=O [Example B13, (11R)-5,11,30-trimethyl-18-(oxetan-3-yl)-7-oxa-4,5,13,18,24,26,31-heptaazahexacyclo[26.3.1.0^{2,6}.0^{13,25}.0^{14,23}.0^{15,20}]dotriaconta-1(31),2(6),3,14,20,22,24,28(32),29-nonaen-27-one] | – | – | – | – | 507 | – | – | – | – | 4.8 | 1 | 20 | 1.2 | 3.4 | 18 | 2.9 | – | 22 | 37 | 7 | IC50 (EGFR wild type; [21]): 2540 nM; IC50 (EGFR[T790M/C797S/L858R]; [22]): 4.2 nM; IC50 (EGFR (d746-750 C797S); [23]): 3.8 nM; IC50 (EGFR L858R; [24]): 160 nM; IC50 [1, 25]: 4.1 nM; IC50 (EGFR Exon19Del/T790M; [26]): 3.2 nM; IC50 (EGFR Exon19Del; [27]): 5.8 nM |
